Where two headings read alike, the source gives them in different places.
What was measured:
HTT mRNA = assay: RT-qPCR splicing assay, HTT mRNA canonical (CJ) and alternative (AJ) junction; assay type: cell-based, human; settings: Homo sapiens; for AC50: HTT alternative junction mRNA, read-out: HTT AJ (increase in AJ mRNA, AC50)
How it was run: (§1)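 A673 or K562 cells treated 24 h at 37 °C with 11-point 3-fold dilutions (top final 10 uM, DMSO ≤0.25%). Lysates analysed by one-step RT-qPCR for canonical (CJ) and alternative-exon (AJ) junctions, normalized to GAPDH, GUSB or PPIA. ΔΔCt vs DMSO, RQ = 2^(−ΔΔCt), expressed as percentage response.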

MYB mRNA = assay: RT-qPCR splicing assay, MYB mRNA canonical (CJ) and alternative (AJ) junction; assay type: cell-based, human; settings: Homo sapiens; for AC50: MYB alternative junction mRNA, read-out: MYB AJ (increase in AJ mRNA, AC50)
How it was run: as §1

HTT = assay: HiBiT protein abundance assay, HTT (K562 HiBiT knock-in); assay type: cell-based, human; settings: HiBiT knock-in K562 cells, 24 hours, top dose 10 μM
How it was run: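 Steps: seed HiBiT knock-in K562 cells; add compound in 10-point 3-fold series from 10 μM final; incubate 24 h, 37 °C; add lytic HiBiT reagent, shake 5 min, wait 10 min; read luminescence. Normalize to parental K562 and DMSO controls, fit 4PL, take IC50.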

Target C = assay: HiBiT protein abundance assay, Target C (K562 HiBiT knock-in); assay type: cell-based, human; settings: HiBiT knock-in K562 cells, 24 hours, top dose 10 μM
How it was run: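 K562 HiBiT knock-in cells (10000/well) were treated 24 h at 37° C with a 10-point 3-fold dilution series (top 10 μM final, ≤0.25% DMSO). HiBiT luminescence was read after lytic LgBiT detection. Percent response used unmodified K562 and DMSO-treated knock-in controls, and IC50 came from a four-parameter fit at 50% of untreated.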

K562 cells = assay: Cell Titer Glo 2.0 cell viability (toxicity) assay, K562; settings: 500 cells/well, 72 hours
[1] = HTT canonical junction mRNA, RT-qPCR, read-out: HTT CJ (decrease in CJ mRNA levels, IC50)
[2] = canonical junction qPCR panel, Table 4, read-out: HTT IC50 (decrease in CJ mRNA levels)
[3] = MYB canonical junction mRNA, RT-qPCR, read-out: MYB CJ (decrease in CJ mRNA levels, IC50)
[4] = canonical junction qPCR panel, Table 4, read-out: MYB IC50 (decrease in CJ mRNA levels)

Row | Compound | AC50 (HTT mRNA; RT-qPCR) [nM] | IC50 (HTT mRNA; [1]) [nM] | IC50 (HTT mRNA; [2]) [nM] | AC50 (MYB mRNA; RT-qPCR) [nM] | IC50 (MYB mRNA; [3]) [nM] | IC50 (MYB mRNA; [4]) [nM] | IC50 (HTT) [nM] | IC50 (Target C) [nM] | Effect of Exemplary Compounds on Cell Viability, K562 (K562 cells)
1 | Cn1cc2cc(-c3ccc4nc(N5CC[C@@H](NC6CCC6)C5)ccc4n3)c(O)c(F)c2n1 (single isomer, unassigned) [Compound 316] | < 100 | < 100 | < 100 | < 100 | < 100 | < 100 | < 100 | < 100 | A (A represents <100 nM)
2 | Cn1cc2cc(-c3ccc4nc(N5CC[C@H](NC6CCC6)C5)ccc4n3)c(O)c(F)c2n1 (single isomer, unassigned) [Compound 317] | < 100 | < 100 | < 100 | < 100 | < 100 | < 100 | < 100 | < 100 | A (A represents <100 nM)
3 | Cc1c(O)c(-c2ccc3nc(N4CC[C@@H](NC(C)C)C4)ccc3n2)cc2cn(C)nc12 (single isomer, unassigned) [Compound 319] | < 100 | < 100 | < 100 | < 100 | < 100 | < 100 | < 100 | < 100 | A (A represents <100 nM)
4 | Cc1c(O)c(-c2ccc3nc(N4CC[C@H](NCC5CC5)C4)ccc3n2)cc2cn(C)nc12 (single isomer, unassigned) [Compound 321] | < 100 | < 100 | < 100 | < 100 | < 100 | < 100 | < 100 | < 100 | B (B represents 100-1000 nM)
5 | Cc1c(O)c(-c2ccc3nc(N4CC[C@@H](NCC5CC5)C4)ccc3n2)cc2cn(C)nc12 (single isomer, unassigned) [Compound 322] | < 100 | < 100 | < 100 | < 100 | < 100 | < 100 | < 100 | < 100 | B (B represents 100-1000 nM)
6 | Cc1nc2c(F)c(O)c(-c3ccc4nc(N5CC[C@@H](NCC6CC6)C5)ccc4n3)cc2o1 (single isomer, unassigned) [Compound 323] | < 100 | < 100 | < 100 | < 100 | < 100 | < 100 | < 100 | < 100 | A (A represents <100 nM)
7 | Cc1nc2c(F)c(O)c(-c3ccc4nc(N5CC[C@H](NCC6CC6)C5)ccc4n3)cc2o1 (single isomer, unassigned) [Compound 324] | < 100 | < 100 | < 100 | < 100 | < 100 | < 100 | < 100 | < 100 | A (A represents <100 nM)
8 | Cc1nc2c(F)c(O)c(-c3ccc4nc(N5CC[C@@H](NC(C)C)C5)ccc4n3)cc2o1 (single isomer, unassigned) [Compound 329] | < 100 | < 100 | < 100 | < 100 | < 100 | < 100 | < 100 | < 100 | A (A represents <100 nM)
9 | Cc1nc2c(F)c(O)c(-c3ccc4nc(N5CC[C@H](NC(C)C)C5)ccc4n3)cc2o1 (single isomer, unassigned) [Compound 330] | < 100 | < 100 | < 100 | < 100 | < 100 | < 100 | < 100 | < 100 | A (A represents <100 nM)
10 | Cn1cc2cc(-c3ccc4nc(N5CC[C@H](N[C@H]6C[C@H](F)C6)C5)ccc4n3)c(O)c(F)c2n1 (single isomer, unassigned) [Compound 347] | < 100 | < 100 | < 100 | < 100 | < 100 | < 100 | < 100 | < 100 | A (A represents <100 nM)
11 | Cc1nc2cc(O)c(-c3ccc4nc(N5CC[C@@H](N[C@H]6C[C@H](F)C6)C5)ccc4n3)cc2o1 (single isomer, unassigned) [Compound 348] | 100 to 1000 | 100 to 1000 | 100 to 1000 | < 100 | < 100 | < 100 | < 100 | 100 to 1000 | C (C represents 1000-9999 nM)
12 | Cn1cc2cc(-c3ccc4nc(N5CC[C@@H](N[C@H]6C[C@H](F)C6)C5)ccc4n3)c(O)c(F)c2n1 (single isomer, unassigned) [Compound 349] | < 100 | < 100 | < 100 | < 100 | < 100 | < 100 | < 100 | < 100 | B (B represents 100-1000 nM)
13 | Cc1nc2c(C)c(O)c(-c3ccc4nc(N5CC[C@H](N[C@H]6C[C@H](F)C6)C5)ccc4n3)cc2o1 (single isomer, unassigned) [Compound 351] | < 100 | < 100 | < 100 | < 100 | < 100 | < 100 | < 100 | < 100 | B (B represents 100-1000 nM)
14 | Cc1nc2c(C)c(O)c(-c3ccc4nc(N5CC[C@@H](N[C@H]6C[C@H](F)C6)C5)ccc4n3)cc2o1 (single isomer, unassigned) [Compound 352] | < 100 | < 100 | < 100 | < 100 | < 100 | < 100 | < 100 | < 100 | B (B represents 100-1000 nM)
15 | Cc1nc2c(F)c(O)c(-c3ccc4nc(N5CC[C@@H](NC6(C)CC6)C5)ccc4n3)cc2o1 (stereo in doubt) [Compound 326, 4-fluoro-2-methyl-6-{6-[(3 S)-3-[(1-methylcyclopropyl)amino]pyrrolidin-1-yl]-1,5-naphthyridin-2-yl}-1,3-benzoxazol-5-ol] | < 100 | < 100 | < 100 | < 100 | < 100 | < 100 | < 100 | < 100 | A (A represents <100 nM)

Reference: US20250092065A1, “2-(INDAZOL-5-YL)-6-(PIPERIDIN-4-YL)-1,7-NAPHTHYRIDINE DERIVATIVES AND RELATED COMPOUNDS AS MODULATORS FOR SPLICING NUCLEIC ACIDS AND FOR THE TREATMENT OF PROLIFERATIVE DISEASES” (REMIX THERAPEUTICS INC., priority 2022, published 2025)
